Measured values taken from patent US12037344B2, “NLRP3 modulators” (INNATE TUMOR IMMUNITY, INC., priority 2018, dated 2024).
Where two headings read alike, the source gives them in different places.

Columns and labels:
THP-1 cells = test: Measurement of IL-1β production, hTRF protocol (second alternative procedure), THP-1 cells; type: cell-based, human; conditions: Homo sapiens
Summary of the method: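 Compounds, dilution series starting at a final 10 μM, were incubated 2 hours at 37° C with PMA-differentiated THP-1 cells (50 ng/ml overnight; 50,000 cells/well, 2% FBS RPMI). Released IL-1β quantified in supernatant by hTRF kit with 1:40 antibody dilution, 4° C overnight, 665/615 nm ratio.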

TLR8 = molecular target: T1, TLR8 (Homo sapiens, UniProt Q9NR97); test: In vitro human TLR8 binding reporter assay (HEK-Blue, NF-kB/AP1-inducible SEAP); type: cell-based; conditions: read-out: TLR8 Agonist EC50
T1 construct: human HEK-Blue cells co-expressing a TLR7 or TLR8 gene
T1 sequence (Q9NR97 27-1041): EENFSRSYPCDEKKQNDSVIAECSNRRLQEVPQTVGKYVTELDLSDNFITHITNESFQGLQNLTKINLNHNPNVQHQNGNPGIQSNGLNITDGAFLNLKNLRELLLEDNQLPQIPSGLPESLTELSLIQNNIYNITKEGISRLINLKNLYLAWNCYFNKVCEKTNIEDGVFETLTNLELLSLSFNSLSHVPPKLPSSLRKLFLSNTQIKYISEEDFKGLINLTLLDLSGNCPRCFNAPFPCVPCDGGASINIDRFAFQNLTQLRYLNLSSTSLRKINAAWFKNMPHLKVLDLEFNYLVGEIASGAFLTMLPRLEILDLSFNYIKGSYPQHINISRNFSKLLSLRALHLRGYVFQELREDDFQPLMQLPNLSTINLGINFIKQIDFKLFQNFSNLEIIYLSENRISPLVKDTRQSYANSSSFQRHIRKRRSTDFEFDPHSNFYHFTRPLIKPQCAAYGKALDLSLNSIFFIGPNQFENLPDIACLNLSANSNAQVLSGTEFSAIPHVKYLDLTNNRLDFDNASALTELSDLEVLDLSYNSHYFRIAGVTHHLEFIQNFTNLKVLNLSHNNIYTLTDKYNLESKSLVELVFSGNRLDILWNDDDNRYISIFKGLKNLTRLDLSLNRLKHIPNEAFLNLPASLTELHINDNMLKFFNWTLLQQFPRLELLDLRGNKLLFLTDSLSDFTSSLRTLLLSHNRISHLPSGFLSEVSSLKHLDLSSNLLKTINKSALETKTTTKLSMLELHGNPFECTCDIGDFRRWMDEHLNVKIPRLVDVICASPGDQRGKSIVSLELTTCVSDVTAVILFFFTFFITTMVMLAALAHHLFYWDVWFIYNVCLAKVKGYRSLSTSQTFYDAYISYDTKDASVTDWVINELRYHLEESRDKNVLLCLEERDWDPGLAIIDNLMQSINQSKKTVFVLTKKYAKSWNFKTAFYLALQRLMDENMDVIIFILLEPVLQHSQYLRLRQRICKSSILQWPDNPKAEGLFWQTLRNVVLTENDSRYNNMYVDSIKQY
Summary of the method: (§1)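 HEK-Blue cells expressing human TLR7 or TLR8 with NF-kB/AP1-inducible SEAP reporter, plated 24 h, then compound-treated 18 h at 37° C, 5% CO2. EC50 normalized to 100% Ymax set by 50 μM reference standard.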

TLR7 = molecular target: T2, TLR7 (Homo sapiens, UniProt Q9NYK1); test: In vitro human TLR7 binding reporter assay (HEK-Blue, NF-kB/AP1-inducible SEAP); type: cell-based; conditions: read-out: TLR7 Agonist EC50
T2 construct: human HEK-Blue cells co-expressing a TLR7 or TLR8 gene
T2 sequence (Q9NYK1 27-1049): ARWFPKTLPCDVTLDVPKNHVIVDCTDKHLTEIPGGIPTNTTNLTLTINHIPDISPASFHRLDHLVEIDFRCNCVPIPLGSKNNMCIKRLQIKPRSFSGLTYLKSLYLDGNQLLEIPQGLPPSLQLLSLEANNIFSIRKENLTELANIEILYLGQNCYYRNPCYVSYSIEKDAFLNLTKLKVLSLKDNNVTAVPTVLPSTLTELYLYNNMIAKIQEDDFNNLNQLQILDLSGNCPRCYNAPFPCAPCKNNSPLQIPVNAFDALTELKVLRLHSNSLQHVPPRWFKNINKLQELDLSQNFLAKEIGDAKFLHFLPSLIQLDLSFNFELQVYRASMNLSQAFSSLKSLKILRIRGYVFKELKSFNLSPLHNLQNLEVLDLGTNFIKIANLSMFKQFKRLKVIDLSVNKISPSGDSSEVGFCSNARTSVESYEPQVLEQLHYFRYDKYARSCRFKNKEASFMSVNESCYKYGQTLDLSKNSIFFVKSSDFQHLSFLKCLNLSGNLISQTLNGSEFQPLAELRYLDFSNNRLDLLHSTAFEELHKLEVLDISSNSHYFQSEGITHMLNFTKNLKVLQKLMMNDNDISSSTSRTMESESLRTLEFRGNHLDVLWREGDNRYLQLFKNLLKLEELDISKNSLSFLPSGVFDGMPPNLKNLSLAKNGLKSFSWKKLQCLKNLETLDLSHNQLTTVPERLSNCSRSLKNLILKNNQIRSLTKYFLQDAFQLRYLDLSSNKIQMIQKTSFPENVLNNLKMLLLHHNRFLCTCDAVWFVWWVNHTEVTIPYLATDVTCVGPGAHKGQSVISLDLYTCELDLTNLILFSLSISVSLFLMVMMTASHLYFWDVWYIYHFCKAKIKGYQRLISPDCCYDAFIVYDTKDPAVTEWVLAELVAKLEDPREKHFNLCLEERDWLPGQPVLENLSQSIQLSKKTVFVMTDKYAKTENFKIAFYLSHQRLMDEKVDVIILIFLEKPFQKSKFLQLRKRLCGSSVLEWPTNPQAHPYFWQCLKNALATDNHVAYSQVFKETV
Summary of the method: as §1

[1] = THP-1, IL-1β production, human, read-out: NLRP3 hILIB EC50
[2] = THP-1, IL-1β production, human cells, read-out: NLRP3 hILIB EC50

Structure (SMILES)	EC50 (THP-1 cells; [1])	EC50 (TLR8; activity range class)	EC50 (TLR7; activity range class)	EC50 (THP-1 cells; [2])	EC50 (TLR8; activity range)	EC50 (TLR7; activity range)	EC50 (THP-1 cells; THP-1, read-out: NLRP3 hILIB EC50)
Nc1nc2cc(-c3cc[nH]n3)c(Cl)cc2c2cn(CCNC(=O)c3ccc(F)cn3)nc12 [Example 195, N-(2-(4-amino-8-chloro-7-(1H-pyrazol-3-yl)-2H-pyrazolo[3,4-c]quinolin-2-yl)ethyl)-5-fluoropicolinamide]	2.15 µM	20 to 100 µM	> 100 µM	–	–	–	–
C[C@H](Cn1cc2c(n1)c(N)nc1cc(-c3cc[nH]n3)ccc12)NS(C)(=O)=O [Example 530]	–	–	–	0.68 µM	> 100 µM	> 100 µM	–
N#CCC1(Cn2cc3c(N)nc4cc(-c5cc[nH]n5)ccc4c3n2)CC1 [Example 466]	–	–	–	0.61 µM	> 100 µM	> 100 µM	–
CC(C(=O)NCCO)n1cc2c(N)nc3cc(-c4ccn[nH]4)ccc3c2n1 (stereo not drawn) [Example 568]	–	–	–	2.1 µM	> 100 µM	> 100 µM	–
Nc1nc2cc(-c3cc[nH]n3)ccc2c2nn(CCOC(F)F)cc12 [Example 349]	0.35 µM	> 100 µM	> 100 µM	–	–	–	–
CN(CCn1cc2c(n1)c(N)nc1cc(-c3cc[nH]n3)ccc12)C(=O)c1ccccc1 [Example 120, N-{2-[4-amino-7-(1H-pyrazol-3-yl)-2H-pyrazolo[3,4-c]quinolin-2-yl]ethyl}-N-methylbenzamide]	–	20 to 100 µM	> 100 µM	–	–	–	1.87 µM
Nc1nc2cc(-c3cc[nH]n3)ccc2c2nn(CCN3Cc4ccc(F)cc4C3=O)cc12 [Example 205, 2-(2-(4-amino-7-(1H-pyrazol-3-yl)-2H-pyrazolo[4,3-c]quinolin-2-yl)ethyl)-6-fluoroisoindolin-1-one]	2.04 µM	> 100 µM	> 100 µM	–	–	–	–
Nc1nc2cc(-c3cc[nH]n3)ccc2c2cn(CCNCc3ccc(Cl)cc3)nc12 [Example 107]	2.63 µM	> 100 µM	> 100 µM	–	–	–	–
CC(C)(C(=O)NCCO)n1cc2c(N)nc3cc(-c4cc[nH]n4)ccc3c2n1 [Example 521]	–	–	–	5.67 µM	> 100 µM	> 100 µM	–
CS(=O)(=O)NCCn1cc2c(n1)c(N)nc1cc(-c3cc[nH]n3)ccc12 [Example 113, N-{2-[4-amino-7-(1H-pyrazol-3-yl)-2H-pyrazolo[3,4-c]quinolin-2-yl]ethyl}methanesulfonamide]	3.83 µM	> 100 µM	20 to 100 µM	–	–	–	–
CC(Cn1cc2c(N)nc3cc(-c4ccn[nH]4)ccc3c2n1)NS(C)(=O)=O (stereo not drawn) [Example 301]	1.4 µM	> 100 µM	> 100 µM	–	–	–	–
COC1CCN(CCn2cc3c(N)nc4cc(-c5ccn[nH]5)ccc4c3n2)C1 (stereo not drawn) [Example 266]	2.62 µM	> 100 µM	> 100 µM	–	–	–	–
CC(C)(Cn1cc2c(N)nc3cc(-c4ccn[nH]4)ccc3c2n1)C(=O)NCc1cccnc1 [Example 601]	–	–	–	32.4 µM	> 100 µM	> 100 µM	–
Nc1nc2cc(-c3cc[nH]n3)ccc2c2nn(C[C@@H]3C[C@H](O)CN3)cc12 [Example 382]	5.39 µM	> 100 µM	> 100 µM	–	–	–	–
Cc1nccc(C(=O)NCCn2cc3c(n2)c(N)nc2cc(-c4cc[nH]n4)ccc23)n1 [Example 50]	1.43 µM	> 100 µM	> 100 µM	–	–	–	–
C[C@H](CO)Cn1cc2c(n1)c(N)nc1cc(-c3cc[nH]n3)ccc12 [Example 399]	–	–	–	0.23 µM	> 100 µM	> 100 µM	–

Structure (SMILES)	EC50 (THP-1 cells; [1])	EC50 (TLR8; activity range class)	EC50 (TLR7; activity range class)	EC50 (THP-1 cells; [2])	EC50 (TLR8; activity range)	EC50 (TLR7; activity range)	EC50 (THP-1 cells; THP-1, read-out: NLRP3 hILIB EC50)
Nc1nc2cc(-c3cc[nH]n3)ccc2c2[nH]c(CN3CCOCC3)c(Cl)c12 [Example 486]	–	–	–	0.13 µM	> 100 µM	> 100 µM	–
N#C[C@H]1CCN(C(=O)CCn2cc3c(N)nc4cc(-c5cc[nH]n5)ccc4c3n2)C1 [Example 516]	–	–	–	9.67 µM	> 100 µM	> 100 µM	–
Nc1nc2cc(-c3cc[nH]n3)ccc2c2c1cnn2CCN1CC(F)(F)C1 [Example 430]	–	–	–	1.9 µM	> 100 µM	> 100 µM	–
Nc1nc2cc(-c3cc[nH]n3)ccc2c2c1cnn2CCO [Example 217]	1.17 µM	> 100 µM	> 100 µM	–	–	–	–
CC(C(=O)NCc1cccnc1)n1cc2c(N)nc3cc(-c4ccn[nH]4)ccc3c2n1 (stereo not drawn) [Example 565]	–	–	–	4.18 µM	> 100 µM	> 100 µM	–
Cc1nnc(Cn2cc3c(N)nc4cc(-c5cc[nH]n5)ccc4c3n2)o1 [Example 243]	1.39 µM	> 100 µM	> 100 µM	–	–	–	–
Nc1nc2cc(-c3cc[nH]n3)ccc2c2nn(CCC(=O)NC3CCC3)cc12 [Example 504]	–	–	–	2.34 µM	> 100 µM	> 100 µM	–
Nc1nc2cc(-c3cc[nH]n3)ccc2c2cn(CCNC(=O)C3CCOCC3)nc12 [Example 47]	23.3 µM	> 100 µM	> 100 µM	–	–	–	–
CC(C(=O)NCCCO)n1cc2c(N)nc3cc(-c4ccn[nH]4)ccc3c2n1 (stereo not drawn) [Example 572]	–	–	–	4.41 µM	> 100 µM	> 100 µM	–
Nc1nc2cc(-c3cc[nH]n3)ccc2c2cn(CCCOc3cccc(F)c3)nc12 [Example 5]	0.35 µM	> 100 µM	> 100 µM	–	–	–	–
COc1ccc(C(=O)NCCn2cc3c(n2)c(N)nc2cc(-c4cc[nH]n4)ccc23)cc1 [Example 40]	0.78 µM	> 100 µM	> 100 µM	–	–	–	–
Nc1nc2cc(-c3cc[nH]n3)ccc2c2nn(C[C@@H](O)CO)cc12 [Example 365]	1.88 µM	> 100 µM	> 100 µM	–	–	–	–
COC1CN(C(=O)Cn2cc3c(n2)c(N)nc2cc(-c4cc[nH]n4)ccc23)C1 [Example 546]	–	–	–	3.27 µM	> 100 µM	> 100 µM	–
Nc1nc2cc(-c3cc[nH]n3)ccc2c2nn(C3CCOCC3)cc12 [Example 236]	0.79 µM	> 100 µM	> 100 µM	–	–	–	–
CN(C)CCc1cc2c(N)nc3cc(-c4ccn[nH]4)ccc3c2[nH]1 [Example 153, 2-[2-(dimethylamino)ethyl]-7-(1H-pyrazol-5-yl)-1H-pyrrolo[3,2-c]quinolin-4-amine]	0.7 µM	> 100 µM	> 100 µM	–	–	–	–
Nc1nc2cc(-c3cc[nH]n3)ccc2c2nn(C[C@H]3CCC(=O)N3)cc12 [Example 385]	2.51 µM	> 100 µM	> 100 µM	–	–	–	–
